In this test the target is T1, recombinant DLL3 ectodomain (rhDLL3-Fc) (Homo sapiens, UniProt Q9NYJ7).
T1 construct: The recombinant DLL3 ectodomain (rhDLL3-Fc) was biotinylated; Fc
T1 sequence (Q9NYJ7 27-492 limits assumed): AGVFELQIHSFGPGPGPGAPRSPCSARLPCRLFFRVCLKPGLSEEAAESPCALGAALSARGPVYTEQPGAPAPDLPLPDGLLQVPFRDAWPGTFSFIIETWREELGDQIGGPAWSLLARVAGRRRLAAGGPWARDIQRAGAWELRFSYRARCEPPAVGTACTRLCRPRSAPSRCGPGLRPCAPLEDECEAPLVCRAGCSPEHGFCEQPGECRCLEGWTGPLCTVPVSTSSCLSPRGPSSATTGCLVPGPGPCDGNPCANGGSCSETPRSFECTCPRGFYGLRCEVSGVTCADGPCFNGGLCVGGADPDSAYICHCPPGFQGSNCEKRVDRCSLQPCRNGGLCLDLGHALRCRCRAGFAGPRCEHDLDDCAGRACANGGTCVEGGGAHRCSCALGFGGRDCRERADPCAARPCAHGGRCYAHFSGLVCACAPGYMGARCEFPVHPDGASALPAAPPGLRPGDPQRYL
As to the kind of experiment: Binding kinetic assay using Bio-layer interferometry (BLI). To be noted: for binding mode to DLL3: peptides at 20, 4 and 0.8 μM, fit to 1:1 Langmuir binding model; for affinity: wider dose-response 10×KD to 0.1×KD. How it is done: Binding kinetic assays were performed using Bio-layer interferometry (BLI) technology. The recombinant DLL3 ectodomain (rhDLL3-Fc) was biotinylated using EZ-Link Sulfo-NHS-LC-LC-Biotin Kit according to the manufacturer's protocol (Pierce by Thermo Fisher Scientific). The recombinant protein was incubated with an excess of NHS-LC-LC Biotin ester, in a molar ratio of 1:3 (protein: biotin), at 25° C. for 90 min. The un-reacted biotin ester was removed by subsequent buffer exchange on 0.5 ml Zeba spin desalting columns 7K MWCO (Pierce by Thermo Fisher Scientific).

[1] abbreviates: Table 4, ± values from three independent experiments, read-out: RT (residence time) (converted).
The mark [2] stands for this setting: range over the seven peptides, read-out: residence time.

pKd: −log10 of the molar value. Like-named read-outs stand apart in the source and are kept apart here. Bridge positions count the residues as written; N and C are the ends. Peptide text beside a SMILES is read from it.

In the case of `CC(C)[C@H](NC(=O)[C@@H](NC(=O)[C@H](CCC(=O)O)NC(=O)[C@H](C)N)[C@@H](C)O)C(=O)N[C@@H](CCC(=O)O)C(=O)N[C@@H](Cc1ccccc1)C(=O)N[C@@H](Cc1c[nH]c2ccccc12)C(=O)N[C@@H](CO)C(=O)N[C@H]1CSSC[C@@H](C(=O)NCC(=O)N[C@H](C(N)=O)[C@@H](C)O)NC(=O)[C@H](CO)NC(=O)[C@H](C(C)C)NC(=O)[C@H]([C@@H](C)O)NC(=O)[C@H](Cc2c[nH]c3ccccc23)NC(=O)[C@H](Cc2ccc(O)cc2)NC(=O)[C@H](CO)NC(=O)[C@H](Cc2ccc(O)cc2)NC(=O)[C@H](Cc2c[nH]cn2)NC1=O` [PepSP1157] (H-AETVEFWSCHYSYWTVSCGT-NH2; disulfide 9-18; N-terminus assumed), the “binding mode to DLL3” value is “dose-response saturable binding”. The residence time under setting [1] was 1.48 min.

With `CC(C)[C@H](NC(=O)[C@@H](NC(=O)[C@H](CCC(=O)O)NC(=O)[C@H](C)N)[C@@H](C)O)C(=O)N[C@@H](CCC(=O)O)C(=O)N[C@@H](Cc1ccccc1)C(=O)N[C@@H](Cc1c[nH]c2ccccc12)C(=O)N[C@H](C(=O)N[C@H]1CSSC[C@@H](C(=O)N[C@@H](CO)C(=O)N[C@@H](Cc2c[nH]c3ccccc23)C(N)=O)NC(=O)[C@H]([C@@H](C)O)NC(=O)[C@H](Cc2c[nH]c3ccccc23)NC(=O)[C@H](CCC(=O)O)NC(=O)[C@H](CC(=O)O)NC(=O)[C@H](C)NC(=O)[C@H](CC(N)=O)NC(=O)CNC(=O)[C@H](Cc2c[nH]cn2)NC1=O)[C@@H](C)O` [PepSP1162] (H-AETVEFWTCHGNADEWTCSW-NH2; disulfide 9-18), the “binding mode to DLL3” value is given as “dose-response saturable binding”. Further, the residence time under setting [1] is 0.85 min.

Consider `CC(C)C[C@H](NC(=O)[C@@H]1CSSC[C@H](NC(=O)CNC(=O)[C@H](Cc2ccc(O)cc2)NC(=O)[C@H](Cc2ccccc2)NC(=O)[C@H](CCC(=O)O)NC(=O)[C@@H](NC(=O)[C@@H](NC(=O)[C@H](CCC(=O)O)NC(=O)[C@H](C)N)[C@@H](C)O)C(C)C)C(=O)N[C@@H](CCC(=O)O)C(=O)N[C@@H]([C@@H](C)O)C(=O)N[C@@H](Cc2ccc(O)cc2)C(=O)N[C@@H](CO)C(=O)NCC(=O)NCC(=O)N[C@@H](Cc2c[nH]c3ccccc23)C(=O)N[C@@H]([C@@H](C)O)C(=O)N1)C(=O)N[C@@H](Cc1c[nH]c2ccccc12)C(N)=O` [PepSP1167] (H-AETVEFYGCETYSGGWTCLW-NH2; disulfide 9-18), for which the “binding mode to DLL3” value is “dose-response saturable binding”. The residence time under setting [1] is 0.783 min.

On to `CC(C)[C@H](NC(=O)[C@@H](NC(=O)[C@H](CCC(=O)O)NC(=O)[C@H](C)N)[C@@H](C)O)C(=O)N[C@@H](CCC(=O)O)C(=O)N[C@@H](Cc1ccccc1)C(=O)N[C@@H](Cc1c[nH]c2ccccc12)C(=O)N[C@@H](CO)C(=O)N[C@H]1CSSC[C@@H](C(=O)NCC(=O)N[C@@H](Cc2c[nH]c3ccccc23)C(N)=O)NC(=O)[C@H](CO)NC(=O)[C@H](Cc2ccc(O)cc2)NC(=O)[C@H]([C@@H](C)O)NC(=O)[C@H](Cc2ccc(O)cc2)NC(=O)[C@H](CCC(=O)O)NC(=O)[C@H](CC(=O)O)NC(=O)[C@H](C)NC(=O)[C@H](C)NC(=O)CNC(=O)CNC(=O)[C@H](Cc2c[nH]c3ccccc23)NC(=O)[C@H](Cc2c[nH]c3ccccc23)NC(=O)[C@H](CCCCN)NC1=O` [PepSP1182] (H-AETVEFWSCKWWGGAADEYTYSCGW-NH2; disulfide 9-23; N-terminus assumed), for which the “binding mode to DLL3” value was “dose-response saturable binding” and the affinity entry is “double-digit nM range”. For the same compound, under setting [1], the residence time was 1.61 min. The residence time under setting [2] was in the range of 1 to 3 min.

`CC(C)[C@H](NC(=O)[C@@H]1CSSC[C@H](NC(=O)CNC(=O)[C@H](Cc2ccc(O)cc2)NC(=O)[C@H](Cc2ccccc2)NC(=O)[C@H](CCC(=O)O)NC(=O)[C@@H](NC(=O)[C@@H](NC(=O)[C@H](CCC(=O)O)NC(=O)[C@H](C)N)[C@@H](C)O)C(C)C)C(=O)N[C@@H](CCCNC(=N)N)C(=O)NCC(=O)NCC(=O)N[C@@H](CC(=O)O)C(=O)NCC(=O)N[C@@H](CCC(=O)O)C(=O)N[C@@H](Cc2c[nH]c3ccccc23)C(=O)N[C@@H]([C@@H](C)O)C(=O)N1)C(=O)N[C@@H](Cc1c[nH]c2ccccc12)C(N)=O` [PepSP1165] (H-AETVEFYGCRGGDGEWTCVW-NH2; disulfide 9-18; N-terminus assumed): the “binding mode to DLL3” value is reported as “dose-response saturable binding”. Also, the residence time under setting [1] was 1.1 min.

For `CC(C)[C@@H]1NC(=O)[C@H]([C@@H](C)O)NC(=O)[C@H](CCC(=O)O)NC(=O)[C@H](CCC(=O)O)NC(=O)[C@H](Cc2ccc(O)cc2)NC(=O)[C@H](Cc2c[nH]c3ccccc23)NC(=O)[C@H](CC(=O)O)NC(=O)[C@@H](NC(=O)[C@H](CCCNC(=N)N)NC(=O)[C@H](Cc2c[nH]c3ccccc23)NC(=O)[C@H](Cc2ccc(O)cc2)NC(=O)[C@H](CCC(=O)O)NC(=O)[C@@H](NC(=O)[C@@H](NC(=O)[C@H](CCC(=O)O)NC(=O)[C@H](C)N)[C@@H](C)O)C(C)C)CSSC[C@@H](C(=O)NCC(=O)N[C@H](C(N)=O)[C@@H](C)O)NC(=O)[C@H](C)NC1=O` [PepSP1155] (H-AETVEYWRCDWYEETVACGT-NH2; disulfide 9-18), the “binding mode to DLL3” value is “dose-response saturable binding”. For the same compound, the residence time under setting [1] is 2.95 min.

For `CC(C)[C@@H]1NC(=O)CNC(=O)[C@H](CCC(=O)O)NC(=O)[C@H]([C@@H](C)O)NC(=O)[C@H](Cc2c[nH]c3ccccc23)NC(=O)[C@H](Cc2ccc(O)cc2)NC(=O)[C@@H](NC(=O)[C@@H](NC(=O)[C@H](Cc2c[nH]c3ccccc23)NC(=O)[C@H](Cc2ccccc2)NC(=O)[C@H](CCC(=O)O)NC(=O)[C@@H](NC(=O)[C@@H](NC(=O)[C@H](CCC(=O)O)NC(=O)[C@H](C)N)[C@@H](C)O)C(C)C)[C@@H](C)O)CSSC[C@@H](C(=O)N[C@@H](CCCNC(=N)N)C(=O)N[C@@H](Cc2c[nH]c3ccccc23)C(N)=O)NC(=O)CNC(=O)[C@H](CO)NC1=O` [PepSP1151] (H-AETVEFWTCYWTEGVSGCRW-NH2; disulfide 9-18), the “binding mode to DLL3” value is recorded as “dose-response saturable binding”. Also, the pKd (Table 4, global fitting 1:1 Langmuir, koff vs kon ratio, ± values from three independent experiments) was 6.90. The residence time under setting [1] is 2.78 min.

For `C[C@@H](O)[C@H](NC(=O)[C@@H]1CSSC[C@H](NC(=O)[C@H](CC(=O)O)NC(=O)[C@@H](N)Cc2c[nH]c3ccccc23)C(=O)N[C@@H](Cc2c[nH]c3ccccc23)C(=O)NCC(=O)N[C@@H](CC(N)=O)C(=O)N[C@@H]([C@@H](C)O)C(=O)N[C@@H](CC(=O)O)C(=O)N[C@@H](CC(=O)O)C(=O)N[C@@H](Cc2c[nH]c3ccccc23)C(=O)N[C@@H]([C@@H](C)O)C(=O)N1)C(=O)N[C@@H](Cc1c[nH]c2ccccc12)C(N)=O` [PepSP1269] (H-WDCWGNTDDWTCTW-NH2; disulfide 3-12; N-terminus assumed), the residence time under setting [1] was 0.333 min.

`CC(C)[C@H](NC(=O)[C@@H](NC(=O)[C@H](CCC(=O)O)NC(=O)[C@H](C)N)[C@@H](C)O)C(=O)N[C@@H](CCC(=O)O)C(=O)N[C@@H](Cc1ccccc1)C(=O)N[C@@H](Cc1ccc(O)cc1)C(=O)NCC(=O)N[C@H]1CSSC[C@@H](C(=O)N[C@@H](C)C(=O)N[C@@H](Cc2c[nH]c3ccccc23)C(N)=O)NC(=O)[C@H]([C@@H](C)O)NC(=O)[C@H](Cc2c[nH]c3ccccc23)NC(=O)CNC(=O)[C@H](CCCCN)NC(=O)[C@H](Cc2c[nH]c3ccccc23)NC(=O)[C@H](CC(=O)O)NC(=O)[C@H](Cc2c[nH]c3ccccc23)NC(=O)[C@H](CCCCN)NC1=O` [PepSP1168] (H-AETVEFYGCKWDWKGWTCAW-NH2; disulfide 9-18; N-terminus assumed): the “binding mode to DLL3” value is listed as “dose-response saturable binding”. For the same compound, the residence time under setting [1] is 0.733 min.

With `CC(C)C[C@H](NC(=O)[C@H](Cc1ccccc1)NC(=O)[C@H](CCC(=O)O)NC(=O)[C@@H](NC(=O)[C@@H](NC(=O)[C@H](CCC(=O)O)NC(=O)[C@H](C)N)[C@@H](C)O)C(C)C)C(=O)NCC(=O)N[C@H]1CSSC[C@@H](C(=O)N[C@H](C(=O)N[C@@H](Cc2c[nH]c3ccccc23)C(N)=O)C(C)C)NC(=O)[C@H]([C@@H](C)O)NC(=O)[C@H](Cc2c[nH]c3ccccc23)NC(=O)[C@H](CCC(=O)O)NC(=O)[C@H](CO)NC(=O)[C@H](CC(N)=O)NC(=O)[C@H](CC(=O)O)NC(=O)CNC(=O)[C@H](Cc2c[nH]cn2)NC1=O` [PepSP1163] (H-AETVEFLGCHGDNSEWTCVW-NH2; disulfide 9-18), the “binding mode to DLL3” value is given as “dose-response saturable binding” and the affinity result was “double-digit nM range”. In addition, the “RT (residence time)” value (Table 4, ± values from three independent experiments) came to 166.8 ± 19.5 s. Under setting [1], the residence time was 2.78 min. Further, under setting [2], the residence time lay within 1 to 3 min.

The term residence time denotes how long the partners stay bound on average. Usually pKd stands for the negative decadic logarithm of the Kd, by convention in mol/L.
